From patent US20170029388A1, “Treatment of Neurodegenerative Diseases with Asparagine Endopeptidase (AEP) Inhibitors and Compositions Related Thereto” (INTERCONTINENTAL GREAT BRANDS LLC, priority 2014, published 2017) come the findings set out here.

Data set [1] concerns CYP3A. Description: CYP inhibition screening, CYP3A-Testosterone. Format: in vitro ADME.
The target in data set [2] is CYP2C9 (Homo sapiens, UniProt P11712). Description: CYP inhibition screening, CYP2C9. Format: in vitro ADME.
CYP2C9, sequence (P11712 whole entry): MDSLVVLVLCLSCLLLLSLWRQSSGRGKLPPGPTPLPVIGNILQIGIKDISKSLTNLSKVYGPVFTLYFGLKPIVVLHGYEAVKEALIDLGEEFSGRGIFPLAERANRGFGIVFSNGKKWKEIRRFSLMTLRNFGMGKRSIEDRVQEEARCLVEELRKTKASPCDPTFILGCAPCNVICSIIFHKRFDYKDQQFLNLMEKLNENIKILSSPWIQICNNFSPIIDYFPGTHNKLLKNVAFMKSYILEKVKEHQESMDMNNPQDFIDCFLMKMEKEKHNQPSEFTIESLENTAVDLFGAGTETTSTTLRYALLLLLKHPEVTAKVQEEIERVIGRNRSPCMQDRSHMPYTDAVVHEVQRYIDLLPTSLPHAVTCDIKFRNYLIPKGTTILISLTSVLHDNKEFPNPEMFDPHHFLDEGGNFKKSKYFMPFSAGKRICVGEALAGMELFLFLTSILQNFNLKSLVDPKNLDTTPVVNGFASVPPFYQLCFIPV
Data set [3] deals with CYP2D6 (Homo sapiens, UniProt P10635). Kind of data set: CYP inhibition screening, CYP2D6. Format: in vitro ADME.
CYP2D6, sequence (P10635 whole entry): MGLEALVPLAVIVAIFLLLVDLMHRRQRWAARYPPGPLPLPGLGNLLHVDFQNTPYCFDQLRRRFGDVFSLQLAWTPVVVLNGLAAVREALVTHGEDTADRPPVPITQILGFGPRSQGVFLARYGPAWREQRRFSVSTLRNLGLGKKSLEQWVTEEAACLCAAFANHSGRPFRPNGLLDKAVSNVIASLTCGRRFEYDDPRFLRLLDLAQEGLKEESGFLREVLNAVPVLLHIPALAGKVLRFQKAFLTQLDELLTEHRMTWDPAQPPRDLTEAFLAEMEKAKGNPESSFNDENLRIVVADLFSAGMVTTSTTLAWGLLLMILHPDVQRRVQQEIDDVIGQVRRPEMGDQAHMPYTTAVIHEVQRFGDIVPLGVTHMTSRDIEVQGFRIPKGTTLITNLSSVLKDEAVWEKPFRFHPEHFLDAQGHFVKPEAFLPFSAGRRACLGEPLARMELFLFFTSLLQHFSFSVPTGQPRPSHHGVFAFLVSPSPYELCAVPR
In data set [4] the test system is Caco-2 monolayer. Kind of data set: Caco-2 monolayer permeability screen. Format: in vitro ADME. A general note: Passage across Caco-2 layers is used to estimate intestinal permeability.
Description: To explore the in vitro ADME profiles of the compounds, additional tests were conducted.
Data set [5] has as its target T1, purified human AEP (Homo sapiens, UniProt Q99538).
T1 construct: tested with purified active AEP, IC50 values for the top 8 candidates were found; purchased Sino Biological
T1 sequence (Q99538 18-323 limits assumed): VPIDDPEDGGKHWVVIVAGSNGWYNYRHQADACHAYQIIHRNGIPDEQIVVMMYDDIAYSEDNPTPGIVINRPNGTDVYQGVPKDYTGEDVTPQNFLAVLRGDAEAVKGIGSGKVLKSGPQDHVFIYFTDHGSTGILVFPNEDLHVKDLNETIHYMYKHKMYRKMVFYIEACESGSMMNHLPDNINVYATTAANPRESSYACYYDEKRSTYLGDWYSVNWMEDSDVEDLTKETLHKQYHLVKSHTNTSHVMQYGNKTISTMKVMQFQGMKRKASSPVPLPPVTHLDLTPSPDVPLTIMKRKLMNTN
Kind of data set: AEP enzymatic assay with purified active enzyme (IC50). Format: biochemical. As to conditions: purified recombinant enzyme; read-out: IC50 toward AEP. On the procedure: FIG. 1 illustrates a high-throughput screening scheme. […] The hits were validated further with purified human AEP, and promising compounds were categorized into 8 groups. Compounds from each group were tested and the cytotoxicity and specificity were determined.
(§1) Purified recombinant enzyme was incubated with various concentrations of inhibitor in appropriate assay buffers in the presence of increasing concentrations of inhibitor. The formation of fluorescent product was monitored in duplicate reactions and the data was fit to appropriate equations to calculate the IC50 values.
(§2) To identify small-molecule inhibitors of AEP, a high-throughput screen was designed in conjunction with the Emory Chemical Biology Discovery Center. The screen incorporated mouse kidney lysates to assay a 54,384 compound library. […] Additional structural analysis and grouping allowed the compounds to be sorted into 8 distinct backbone families. […] The specificity of the compounds was also determined using four major cysteine proteases (FIG. 2).
AEP—50 nM enzyme was pre-incubated with inhibitor in assay buffer (50 mM Sodium Citrate pH 5.5, 0.1% CHAPS, 60 mM Na2HPO4, 1 mM EDTA) for 10 min at 37° C. The reaction was initiated upon addition of 10 μM Cbz-Ala-Ala-Asn-AMC (Bachem)).

The target of data set [6] is T2, Caspase-8 (Homo sapiens, UniProt Q14790).
T2 construct: purchased Millipore
T2 sequence (Q14790 217-374 limits assumed, species assumed): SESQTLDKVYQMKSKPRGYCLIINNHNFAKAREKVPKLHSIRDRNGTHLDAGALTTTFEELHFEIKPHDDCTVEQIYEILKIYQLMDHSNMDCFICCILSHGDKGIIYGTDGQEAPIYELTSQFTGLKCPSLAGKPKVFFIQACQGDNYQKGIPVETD
T2 sequence (Q14790 385-479 limits assumed, species assumed): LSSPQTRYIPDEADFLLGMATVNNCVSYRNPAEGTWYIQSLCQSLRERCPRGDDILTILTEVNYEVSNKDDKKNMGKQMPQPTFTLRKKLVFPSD
Description: Caspase-8 enzymatic assay (specificity). The data set is classed as biochemical. On the procedure: as §1, §2
(§3) Caspase-3 and 8 —The enzyme was pre-incubated with inhibitor in assay buffer (100 mM HEPES pH 7.4, 0.1% CHAPS, 10% Sucrose) for 10 min at 37° C. The reaction was initiated upon addition of 25 μM substrate (Ac-Asp-Glu-Val-Asp-AMC (Bachem)).

The target in data set [7] is Cathepsin-L (Homo sapiens, UniProt P07711). Description: Cathepsin-L enzymatic assay (specificity). The data set is classed as biochemical. Here is the method:
as §1, §2
Cathepsin-L—100 nM enzyme was pre-incubated with inhibitor in assay buffer (100 mM Sodium Acetate pH 5.5, 1 mM EDTA) for 10 min at 37° C. The reaction was initiated upon addition of 25 μM substrate (D-Val-Leu-Lys-AMC (Bachem)).

Data set [8] concerns cleavage of the amyloid precursor protein (APP). Description: OGD in primary cortical neurons, APP cleavage (immunoblot). As to conditions: 0.1 μM compound. Format: cell-based. On the procedure:
A. AEP activity, measured in primary neuronal cultures with 5 μM Cbz-Ala-Ala-Asn-AMC (x-axis denotes neurons were treated with 0.1 μM or 1.0 μM specified compound). B. Caspase activity, measured in primary neuronal cultures with 5 μM Ac-Asp-Glu-Val-Asp-AMC. C. Cathepsin activity, measured in primary neuronal cultures with 5 μM D-Val-Leu-Lys-AMC. D. Inhibition of APP cleavage. Lysates of primary cortical neurons pre-incubated with compounds for 30 min, underwent OGD for 4 hrs, were reperfused for 18 hrs (normoxia neurons remained at normoxic conditions). E. APP can be cleaved in a dose-dependent manner. Lysates of primary cortical neurons pre-incubated with compounds for 30 min, underwent OGD for 4 hrs, were reperfused for 18 hrs (normoxia neurons remained at normoxic conditions).
Depriving cells of oxygen and glucose is a cellular model that is employed to trigger acidosis in cultured cells. The efficacy of the compounds in a cellular model of oxygen-glucose deprivation (OGD) was determined in an effort to mimic the effects of stroke in primary cultured neurons. As a result of depriving neurons of oxygen and glucose-containing medium, AEP activity was doubled (FIG. 7A, ‘DMSO-Norm’ compared to ‘DMSO-OGD’), while Caspase-3 and Cathepsin activities remained relatively unchanged. […] Cleavage of APP is observed in response to only DMSO treatment (FIG. 7D, lane 2), and it appears that upon the treatment of 1 μM of compounds 10, 11, and 12, and just 0.1 μM of compounds 31, 38 and 64, the cleavage was blocked, presumably due to AEP inhibition.
Compounds were pre-incubated with primary culture neurons, DIV13, for 30 min. The medium was exchanged for glucose-free DMEM and neurons were de-gased and incubated at 37° C., 95% N2/5% CO2 for 4 hrs with compounds. The medium was exchanged for DMEM and supplemented with compounds, then neurons were reperfused for 18 hrs under normoxic conditions. The neuronal lysates were prepared for AEP, Caspase-3 and Cathepsin assays. Moreover, immunoblotting analysis was conducted with the neuronal lysates using anti-APP, anti-AEP antibodies.
In general terms: A western blot detects proteins with antibodies after separation by electrophoresis.

Data set [9] addresses CYP2C19 (Homo sapiens, UniProt P33261). Kind of data set: CYP inhibition screening, CYP2C19. The data set is classed as in vitro ADME.
For data set [10], the target named is T3, Cathepsin-S (Homo sapiens, UniProt P25774).
T3 construct: purchased Athens Research and Technology
T3 sequence (P25774 115-331): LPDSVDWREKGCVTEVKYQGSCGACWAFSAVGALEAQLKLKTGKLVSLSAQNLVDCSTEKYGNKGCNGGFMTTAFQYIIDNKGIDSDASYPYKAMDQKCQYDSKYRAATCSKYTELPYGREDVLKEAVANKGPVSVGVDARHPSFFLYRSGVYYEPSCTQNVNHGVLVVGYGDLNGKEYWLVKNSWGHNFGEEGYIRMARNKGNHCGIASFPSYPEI
Description: Cathepsin-S enzymatic assay (specificity). Format: biochemical. On the procedure:
as §1, §2
Cathepsin-S—100 nM enzyme was pre-incubated with inhibitor in assay buffer (100 mM NaH2PO4 pH 6.5, 100 mM NaCl) for 10 min at 37° C. The reaction was initiated upon addition of 25 μM substrate (Boc-Val-Leu-Lys-AMC (Bachem)).

Data set [11] concerns the target CYP3A4 (Homo sapiens, UniProt P08684). Description: CYP inhibition screening, CYP3A4-Midazolam. The data set is classed as in vitro ADME.
In data set [12] the target is T4, Caspase-3 (Homo sapiens, UniProt P42574).
T4 construct: purchased Millipore
T4 sequence (P42574 29-175 limits assumed, species assumed): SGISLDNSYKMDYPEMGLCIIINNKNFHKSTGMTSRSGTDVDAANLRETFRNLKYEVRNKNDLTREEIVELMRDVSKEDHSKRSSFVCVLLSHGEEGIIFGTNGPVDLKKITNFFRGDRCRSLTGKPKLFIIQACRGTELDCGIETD
T4 sequence (P42574 176-277 limits assumed, species assumed): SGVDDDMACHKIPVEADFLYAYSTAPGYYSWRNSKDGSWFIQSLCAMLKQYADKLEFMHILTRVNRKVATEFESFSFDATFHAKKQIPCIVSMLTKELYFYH
Description: Caspase-3 enzymatic assay (specificity). The data set is classed as biochemical. On the procedure:
as §1, §2, §3

The target of data set [13] is T5, CYP1A2 (Homo sapiens, UniProt P05177).
T5 sequence (P05177 1-516): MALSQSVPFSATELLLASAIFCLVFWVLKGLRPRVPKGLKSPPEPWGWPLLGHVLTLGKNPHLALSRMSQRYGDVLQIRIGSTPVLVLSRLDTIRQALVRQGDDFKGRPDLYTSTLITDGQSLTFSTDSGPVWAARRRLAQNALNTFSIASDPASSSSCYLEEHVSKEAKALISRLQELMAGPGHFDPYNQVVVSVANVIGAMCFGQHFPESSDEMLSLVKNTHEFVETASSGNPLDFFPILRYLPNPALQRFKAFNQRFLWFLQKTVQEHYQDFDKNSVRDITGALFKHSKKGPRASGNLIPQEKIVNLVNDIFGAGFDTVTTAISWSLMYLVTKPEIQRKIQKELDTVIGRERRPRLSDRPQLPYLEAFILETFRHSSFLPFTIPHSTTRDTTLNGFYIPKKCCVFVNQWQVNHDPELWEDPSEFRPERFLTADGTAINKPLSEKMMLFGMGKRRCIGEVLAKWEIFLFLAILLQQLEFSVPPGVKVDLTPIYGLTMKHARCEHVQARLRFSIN
Kind of data set: CYP inhibition screening, CYP1A2. The data set is classed as in vitro ADME.

Data set [14] is described as follows: Liver microsomal stability, mouse. Conditions: mouse liver microsomes. (Microsomes from liver hold many membrane-bound enzymes, among them those of drug oxidation.)
A short description of data set [15]: Liver microsomal stability, human. Conditions: human liver microsomes.
The conditions of data set [16]: PAMPA.

Structures are written as SMILES.

CYP2C19, sequence (P33261 whole entry): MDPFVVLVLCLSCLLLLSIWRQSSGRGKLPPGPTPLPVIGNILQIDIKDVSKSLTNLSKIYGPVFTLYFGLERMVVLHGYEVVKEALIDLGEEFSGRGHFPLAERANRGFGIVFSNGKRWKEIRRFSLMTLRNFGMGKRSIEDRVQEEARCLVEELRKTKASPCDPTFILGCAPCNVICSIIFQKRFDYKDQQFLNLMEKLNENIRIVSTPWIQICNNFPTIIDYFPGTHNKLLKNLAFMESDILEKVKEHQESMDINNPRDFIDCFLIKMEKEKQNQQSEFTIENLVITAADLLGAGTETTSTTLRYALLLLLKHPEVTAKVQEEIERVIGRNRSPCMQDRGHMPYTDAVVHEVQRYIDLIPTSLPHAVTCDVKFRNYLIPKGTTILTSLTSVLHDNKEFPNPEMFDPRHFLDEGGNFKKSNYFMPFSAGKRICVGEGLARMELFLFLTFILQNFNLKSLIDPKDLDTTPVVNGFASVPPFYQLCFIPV
CYP3A4, sequence (P08684 whole entry): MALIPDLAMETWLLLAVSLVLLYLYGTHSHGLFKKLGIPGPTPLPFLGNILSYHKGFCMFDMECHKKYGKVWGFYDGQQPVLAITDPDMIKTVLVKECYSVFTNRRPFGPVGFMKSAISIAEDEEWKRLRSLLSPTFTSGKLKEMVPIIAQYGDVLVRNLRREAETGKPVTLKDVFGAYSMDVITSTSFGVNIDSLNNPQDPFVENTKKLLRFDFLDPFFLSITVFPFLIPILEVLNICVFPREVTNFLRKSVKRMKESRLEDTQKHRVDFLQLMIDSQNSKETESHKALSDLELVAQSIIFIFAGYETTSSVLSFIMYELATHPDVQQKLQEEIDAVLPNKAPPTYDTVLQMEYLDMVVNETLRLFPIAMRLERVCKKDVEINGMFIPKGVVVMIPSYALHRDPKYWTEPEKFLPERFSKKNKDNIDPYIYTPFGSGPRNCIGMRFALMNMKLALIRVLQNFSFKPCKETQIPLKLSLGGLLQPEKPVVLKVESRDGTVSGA
Cathepsin-L, sequence (P07711 114-333, species assumed): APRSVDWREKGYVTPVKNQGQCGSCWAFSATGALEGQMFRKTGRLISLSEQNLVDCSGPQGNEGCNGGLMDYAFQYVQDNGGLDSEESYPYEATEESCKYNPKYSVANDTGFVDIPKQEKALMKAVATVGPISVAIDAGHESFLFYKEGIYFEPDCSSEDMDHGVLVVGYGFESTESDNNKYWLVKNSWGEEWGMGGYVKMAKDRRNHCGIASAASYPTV

What is called IC50 is the midpoint of a concentration-inhibition curve. In the case of `CCN(CC)c1ccc(CN2CCc3nc(C)[nH]c(=O)c3C2)c(OC)c1` [Compound 64], the “CYP inhibition, CYP3A-Testosterone” value in data set [1] (test concentration 3 μM) is listed as 1.5%; in data set [1] (test concentration 10 μM) it was −0.1%. In addition, the entries for the “CYP inhibition, CYP2C9” value in [2] (test concentration 3 μM) and in data set [2] (test concentration 10 μM) were 4.6% and 7.9%, respectively. Further, the “CYP inhibition, CYP2D6” value in data set [3] (test concentration 3 μM) was found to be 34.6%; in data set [3] (test concentration 10 μM) it was 58.3%. For the same compound, the “A -> B Papp” value in data set [4] (Caco-2) was “<LLOQ”. For the same compound, the “B -> A Papp” value in data set [4] (Caco-2) is “<LLOQ”. The IC50 in data set [5] came out at 2370 nM. The “selectivity for AEP over Caspase-8” value in [6] was “over 40 fold”. Besides, in [7], the “selectivity for AEP over Cathepsin-L” value is given as “over 40 fold”. Moreover, the “cleavage of APP after OGD” value in data set [8] was “blocked”. Besides, the “CYP inhibition, CYP2C19” value was determined as 31.6% in data set [9] (test concentration 3 μM) and 20.4% in data set [9] (test concentration 10 μM). In addition, the “selectivity for AEP over Cathepsin-S” value in [10] was “over 40 fold”. For the same compound, the “CYP inhibition, CYP3A4-Midazolam” value is recorded as 0.6% in data set [11] (test concentration 3 μM) and 10.1% in [11] (test concentration 10 μM). For the same compound, the “selectivity for AEP over Caspase-3” value in data set [12] is “about 6 fold”. Moreover, the “CYP inhibition, CYP1A2” value in data set [13] (test concentration 3 μM) worked out at 23.7%; in data set [13] (test concentration 10 μM) it was 22.2%.

As for `COc1ccc(N2CCN(C(c3ccc(N(C)C)cc3)c3nnnn3C(C)(C)C)CC2)cc1` (stereo not drawn) [Compound 31], the “Mean Remaining Parent (NADPH-free)” value amounted to 86% in data set [14] and 75% in data set [15]. Also, the “Mean Remaining Parent (with NADPH)” value worked out at 16% in data set [14] and 12% in data set [15] (30 min of incubation). Also, the “CYP inhibition, CYP3A-Testosterone” value in data set [1] (test concentration 3 μM) turned out to be 2.5%; in data set [1] (test concentration 10 μM) it was 0.7%. Further, the “CYP inhibition, CYP2C9” value in [2] (test concentration 3 μM) turned out to be 47.8%; in data set [2] (test concentration 10 μM) it was 69.2%. Besides, the “CYP inhibition, CYP2D6” value is 9.9% in data set [3] (test concentration 3 μM) and 1.4% in data set [3] (test concentration 10 μM). The “Caco-2 permeability (in words)” value in data set [4] was “highly permeable”. For the same compound, the “A -> B Papp” value in data set [4] (Caco-2) is on record as 19.3 10^−6 cm · s^−1. For the same compound, in [4] (Caco-2), the “B -> A Papp” value is given as 17.4 10^−6 cm · s^−1. Besides, the RE in data set [4] (Caco-2) is 0.9. The “cleavage of APP after OGD” value in data set [8] is reported as “blocked”. In addition, the Pe entry in [16] is on record as “<LLOQ”. In addition, the “CYP inhibition, CYP2C19” value in data set [9] (test concentration 3 μM) was found to be 37.7%; in [9] (test concentration 10 μM), 55.7%. In addition, the figures for the “CYP inhibition, CYP3A4-Midazolam” value in [11] (test concentration 3 μM) and in data set [11] (test concentration 10 μM) were −0.9% and 18.1%, respectively. In addition, the figures for the “CYP inhibition, CYP1A2” value in [13] (test concentration 3 μM) and in [13] (test concentration 10 μM) were 13.5% and 10.3%, respectively.
